Measured values as given in patent US9487749B2 (priority 2009, dated 2016).
Several values for one entry are separate records, joined by “and”; a condition that tells them apart may be missing. Equal entries are not always repeated. Entries after “also recorded” stand apart in the source; their conditions may differ.

Key:
[1] = system: Escherichia coli; assay: USP Antimicrobial Effectiveness Test (AET) of MSM supplemented TSB; format: cell-based; parameters: key: Colonies too numerous to count (TNTC); settings: 48 hrs
Text: (§1) Compounds or formulated products having antimicrobial activity may be evaluated with the United States Pharmacopeia (USP) Antimicrobial Effectiveness Test (AET). The AET involves the addition of specified microorganisms (Candida albicans, Aspergillus niger, Escherichia coli, Pseudomonas aeruginosa and Staphylococcus aureus) directly to a test product at relatively high concentrations to simulate contamination. The product is held for one month, with weekly analysis of microorganism levels. […] For yeast and mold, no increase from the initial inoculums level is permitted. […] Inoculations were made using Candida albicans, Aspergillus niger, Escherichia coli, Pseudomonas aeruginosa and Staphylococcus aureus. Tryptic soy broth (TSB) was used as the culturing media. […] The inoculated media was held for one month, during which time the added microorganisms were enumerated weekly to determine if they were growing, dying off, or remaining near the initial inoculation level. […] The acceptance criteria for antimicrobial effectiveness are described in detail in the USP, herein incorporated by reference.

[2] = system: Pseudomonas aeruginosa; assay: as above; format: cell-based; parameters: key: Colonies too numerous to count (TNTC); settings: 48 hrs
Text: as §1

[3] = system: Candida albicans; assay: as above; format: cell-based; parameters: key to AET test results (microorganism count): Colonies too numerous to count (TNTC); settings: for Log Reduction from Initial Microorganism Inoculum: 1:10 dilution of MSM, 14 Days, 28 Days; for AET test results (microorganism count): 48 hrs
Text: as §1

[4] = system: Aspergillus niger; assay: USP <51> AET in cosmetic cream / cosmetic compositions, 28 days; format: cell-based; settings: 10% MSM in cosmetic cream without preservative, 48 hrs-28 days
Text: (§2) The cosmetic cream matrix into which the MSM was incorporated was preservative free. An additional cream, with a preservative, was also spiked with E. coli and evaluated.

[5] = system: Candida albicans; assay: as above; format: cell-based; settings: for Microbial growth (count): 48 hrs-28 days; for Log Reduction from Initial Microorganism Inoculum: 14 Days, 28 Days
Text: as §2

[6] = system: Escherichia coli; assay: as above; format: cell-based; settings: for Microbial growth (count): 48 hrs-28 days; for Log Reduction from Initial Microorganism Inoculum: 14 Days, 28 Days
Text: as §2

[7] = system: Pseudomonas aeruginosa; assay: as above; format: cell-based; settings: for Microbial growth (count): 48 hrs-28 days; for Log Reduction from Initial Microorganism Inoculum: 14 Days, 28 Days
Text: as §2

[8] = system: Staphylococcus aureus; assay: as above; format: cell-based; settings: for Log Reduction from Initial Microorganism Inoculum: 14 Days, 28 Days
Text: as §2

[9] = system: Bacillus coagulans; assay: Bacillus coagulans growth in simulated gastric acid supplemented with MSM; format: cell-based; settings: simulated gastric acid pH 1.2
[10] = system: normal flora found in the milks; assay: Growth of non-probiotic microorganisms in Acidophilus milk (standard plate counts); format: cell-based
Procedure: 31, 2013. […] The Acidophilus milk was low fat (Darigold). […] This was performed to look at how MSM would affect the normal flora found in the milks. Day 0 was the day the samples were setup for the start of the study. The Acidophilus plus Bifidus milk started with a higher count at Day 0 than what is typically expected. This caused the end values to be elevated. The Acidophilus milk product at Day 0 was at expected values. The Acidophilus milk maintained adequate growth rates through out the study and were equivalent to typical growth rates seen in milk products.

[11] = system: Herpes Simplex Virus type 1 (ATCC #VR-260); format: cell-based
[12] = system: Escherichia coli (ATCC strain 8739); assay: E. coli growth profile in sterile and non-sterile MSM in TSB or saline (USP <51> AET basis, MacConkey agar streak); settings: for Growth profile of E. coli: 5-16% MSM
Procedure: The USP <51> AET is a compendial (United States Pharmacopeia) antimicrobial effectiveness test method for determining if a preservative is effective based upon a verified and validated methodology.
All tubes except the negative controls were spiked with 250 μl of a 1.2×10^8 culture, which yields an initial E. coli population density of 1.2×10^6/mL. Tubes were incubated at 25° C.

[13] = 10% MSM in cosmetic cream without preservative
[14] = 10% MSM in preservative-free jojoba cosmetic cream
[15] = 10% MSM, Preservative Free Cosmetic Composition #1
[16] = 10% MSM, Preservative Free Cosmetic Composition #2
[17] = 10% MSM in Preservative Free Cosmetic Composition #1, 48 hours after inoculation
[18] = 10% MSM in Preservative Free Cosmetic Composition #1, 7 days after inoculation

## CS(C)(=O)=O [MSM, Methylsulfonylmethane]
[1]; 1:100 dilution of MSM in TSB
  AET test results (microorganism count): TNTC
[1]; 1:1000 dilution of MSM in TSB
  AET test results (microorganism count): TNTC
[2]; 1:100 dilution of MSM in TSB
  AET test results (microorganism count): TNTC
[2]; 1:1000 dilution of MSM in TSB
  AET test results (microorganism count): TNTC
[3]; after 14 days
  Log Reduction from Initial Microorganism Inoculum: 4.2 log
[3]; after 28 days
  Log Reduction from Initial Microorganism Inoculum: 4.4 log
[3]; 1:100 dilution of MSM in TSB
  AET test results (microorganism count): TNTC
[3]; 1:1000 dilution of MSM in TSB
  AET test results (microorganism count): TNTC
[4]; 48 hours after inoculation
  Microbial growth (count): 8 × 10^3
[4]; 14 days after inoculation
  Microbial growth (count): 6 × 10^3
[4]; 28 days after inoculation
  Microbial growth (count): 5 × 10^2
[5]; 10% MSM in Preservative Free Cosmetic Composition #2, after 48 hours incubation
  Microbial growth (count): 9.0 × 10^2
[5]; 10% MSM in Preservative Free Cosmetic Composition #2, after 7 days incubation
  Microbial growth (count): <10
[5]; [13]
  Microbial growth (count): <10
[5]; [14]
  Log Reduction from Initial Microorganism Inoculum: 4.3 log
[5]; [15]
  Log Reduction from Initial Microorganism Inoculum: 5.3 log
[5]; [16]
  Log Reduction from Initial Microorganism Inoculum: 5.3 log
[6]; [17]
  Microbial growth (count): 5.4 × 10^4
[6]; [18]
  Microbial growth (count): <10
[6]; [13]
  Microbial growth (count): <10
[6]; [14]
  Log Reduction from Initial Microorganism Inoculum: 5.7 log
[6]; [15]
  Log Reduction from Initial Microorganism Inoculum: 5.8 log
[6]; [16]
  Log Reduction from Initial Microorganism Inoculum: 5.8 log
[7]; [17]
  Microbial growth (count): 7.3 × 10^3
[7]; [18]
  Microbial growth (count): <10
[7]; [13]
  Microbial growth (count): <10
[7]; [14]
  Log Reduction from Initial Microorganism Inoculum: 5.3 log
[7]; [15]
  Log Reduction from Initial Microorganism Inoculum: 5.8 log
[7]; [16]
  Log Reduction from Initial Microorganism Inoculum: 5.8 log
[8]; 10% MSM in cosmetic cream without preservative, 48 hrs-28 days
  Microbial growth (count): <10
[8]; [14]
  Log Reduction from Initial Microorganism Inoculum: 5.6 log
[8]; [15]
  Log Reduction from Initial Microorganism Inoculum: 5.7 log
[8]; [16]
  Log Reduction from Initial Microorganism Inoculum: 5.7 log
[9]; 5% MSM, hour 0
  Log Growth of Bacillus coagulans average: 0.26 log
[9]; 5% MSM, hour 3
  Log Growth of Bacillus coagulans in duplicate: 0 log
  Log Growth of Bacillus coagulans average: 0 log
[9]; 5% MSM, hour 6
  Log Growth of Bacillus coagulans in duplicate: 0 log
  Log Growth of Bacillus coagulans average: 0 log
[9]; 5% MSM, hour 9
  Log Growth of Bacillus coagulans in duplicate: 0 log
  Log Growth of Bacillus coagulans average: 0 log
[9]; 5% MSM, hour 12
  Log Growth of Bacillus coagulans in duplicate: 0 log
  Log Growth of Bacillus coagulans average: 0 log
[9]; 5% MSM, hour 15
  Log Growth of Bacillus coagulans average: 0.26 log
[9]; 5% MSM, hour 24
  Log Growth of Bacillus coagulans in duplicate: 0 log
  Log Growth of Bacillus coagulans average: 0 log
[9]; 5% MSM, hour 48
  Log Growth of Bacillus coagulans in duplicate: 0 log
  Log Growth of Bacillus coagulans average: 0 log
[9]; […] MSM, hour 0
  Log Growth of Bacillus coagulans in duplicate: 0 log
[9]; […] MSM, hour 3
  Log Growth of Bacillus coagulans in duplicate: 0 log
[9]; […] MSM, hour 9
  Log Growth of Bacillus coagulans in duplicate: 0 log
  Log Growth of Bacillus coagulans average: 0 log
[9]; […] MSM, hour 12
  Log Growth of Bacillus coagulans in duplicate: 0 log
[9]; […] MSM, hour 15
  Log Growth of Bacillus coagulans in duplicate: 0 log
  Log Growth of Bacillus coagulans average: 0 log
[9]; […] MSM, hour 24
  Log Growth of Bacillus coagulans in duplicate: 0 log
  Log Growth of Bacillus coagulans average: 0 log
[9]; […] MSM, hour 48
  Log Growth of Bacillus coagulans in duplicate: 0 log
  Log Growth of Bacillus coagulans average: 0 log
[10]; 5.0% MSM, throughout the study
  growth of normal flora (standard plate counts): did not allow any significant growth
[10]; A/B milk, […] MSM, Day 0
  Growth of non-probiotic microorganisms in Acidophilus Milk: 370 cfu per mL
[10]; A/B milk, […] MSM, Day 3
  Growth of non-probiotic microorganisms in Acidophilus Milk: 480 cfu per mL
[10]; A/B milk, […] MSM, Day 7
  Growth of non-probiotic microorganisms in Acidophilus Milk: 570 cfu per mL
[10]; A/B milk, […] MSM, Day 14
  Growth of non-probiotic microorganisms in Acidophilus Milk: 1460 cfu per mL
[10]; A/B milk, […] MSM, Day 21
  Growth of non-probiotic microorganisms in Acidophilus Milk: 3500 cfu per mL
[10]; A/B milk, […] MSM, Day 28
  Growth of non-probiotic microorganisms in Acidophilus Milk: 110000 cfu per mL
[10]; acidophilus milk, 0.50% MSM, Day 0
  Growth of non-probiotic microorganisms in Acidophilus Milk: 20 cfu per mL and 30 cfu per mL
[10]; acidophilus milk, 0.50% MSM, Day 3
  Growth of non-probiotic microorganisms in Acidophilus Milk: 10 cfu per mL
[10]; acidophilus milk, 0.50% MSM, Day 7
  Growth of non-probiotic microorganisms in Acidophilus Milk: 10 cfu per mL
[10]; acidophilus milk, 0.50% MSM, Day 14
  Growth of non-probiotic microorganisms in Acidophilus Milk: 20 cfu per mL
[10]; acidophilus milk, 0.50% MSM, Day 21
  Growth of non-probiotic microorganisms in Acidophilus Milk: 20 cfu per mL and 40 cfu per mL
[10]; acidophilus milk, 5% MSM, Day 0
  Growth of non-probiotic microorganisms in Acidophilus Milk: 10 cfu per mL and 20 cfu per mL
[10]; acidophilus milk, 5% MSM, Day 3
  Growth of non-probiotic microorganisms in Acidophilus Milk: 10 cfu per mL
[10]; acidophilus milk, 5% MSM, Day 7
  Growth of non-probiotic microorganisms in Acidophilus Milk: 10 cfu per mL and 20 cfu per mL
[10]; acidophilus milk, 5% MSM, Day 14
  Growth of non-probiotic microorganisms in Acidophilus Milk: 20 cfu per mL and 10 cfu per mL
[10]; acidophilus milk, 5% MSM, Day 21
  Growth of non-probiotic microorganisms in Acidophilus Milk: 20 cfu per mL and 10 cfu per mL
[10]; acidophilus milk, 5% MSM, Day 28
  Growth of non-probiotic microorganisms in Acidophilus Milk: 10 cfu per mL
[10]; acidophilus milk, […] MSM, Day 0
  Growth of non-probiotic microorganisms in Acidophilus Milk: 10 cfu per mL
[10]; acidophilus milk, […] MSM, Day 14
  Growth of non-probiotic microorganisms in Acidophilus Milk: <10 cfu per mL
[11]
  Average TCID50: 3.17 log10 and 4.67 log10 and 4.33 log10 and 4.08 log10 and 4.83 log10 and 5.00 log10 and 5.42 log10
  reduction of virus population: more than 1.0 log10
[12]; 5-9% MSM in TSB/TSBA media, 24 hours
  visual signs of growth in culture tubes: visible signs of growth
[12]; 5-10% MSM in TSB/TSBA, 48 hours, 72 hours
  visual signs of growth in culture tubes: signs of heavy growth
[12]; 10-16% MSM in TSB/TSBA media, 24 hours
  visual signs of growth in culture tubes: no signs of growth
[12]; 11% MSM in TSB/TSBA, 48 hours, 72 hours
  visual signs of growth in culture tubes: Apparent growth
[12]; 12-15% MSM in TSB/TSBA, 48 hours, 72 hours
  visual signs of growth in culture tubes: little to no observable signs of growth
[12]; MSM in saline tubes, 24 hours
  visual signs of growth in culture tubes: did not show any signs of growth
[12]; after 24 hours, NS (sterile saline added to non-sterile MSM)
  Growth profile of E. coli: Heavy; also recorded: Moderate
[12]; after 24 hours, NSA (saline + MSM, then sterilized)
  Growth profile of E. coli: Heavy; also recorded: Moderate
[12]; after 24 hours, TSB (sterile TSB added to non-sterile MSM)
  Growth profile of E. coli: Heavy and Moderate and Few
[12]; after 24 hours, TSBA (TSB + MSM, then sterilized)
  Growth profile of E. coli: Heavy and Moderate and Few
[12]; after 48 hours, NS
  Growth profile of E. coli: Heavy; also recorded: Moderate
[12]; after 48 hours, NSA
  Growth profile of E. coli: Heavy; also recorded: Moderate
[12]; after 48 hours, TSB
  Growth profile of E. coli: Heavy and Moderate and Few
[12]; after 48 hours, TSBA
  Growth profile of E. coli: Heavy and Moderate and Few
[12]; after 72 hours, NS
  Growth profile of E. coli: Heavy; also recorded: Moderate
[12]; after 72 hours, NSA
  Growth profile of E. coli: Heavy; also recorded: Moderate
[12]; after 72 hours, TSB
  Growth profile of E. coli: Heavy and Moderate and Few
[12]; after 72 hours, TSBA
  Growth profile of E. coli: Heavy and Moderate and Few
